Test results taken from patent US10414774B2, “Compound useful for altering the levels of bile acids for the treatment of diabetes and cardiometabolc disease” (Merck Sharp & Dohme Corp., priority 2016, dated 2019).

The molecules below were run against T1, Human CYP8B1 (Homo sapiens, UniProt Q9UNU6) (assay: Human CYP8B1 Liver Microsome Assay). Conditions: Human CYP8B1 IC50, human liver microsomes; substrate 7a-hydroxy-4-cholesten-3-one, NADPH; RapidFire MS detection of 7α,12α-dihydroxy-4-cholesten-3-one.
T1 sequence (Q9UNU6 1-501): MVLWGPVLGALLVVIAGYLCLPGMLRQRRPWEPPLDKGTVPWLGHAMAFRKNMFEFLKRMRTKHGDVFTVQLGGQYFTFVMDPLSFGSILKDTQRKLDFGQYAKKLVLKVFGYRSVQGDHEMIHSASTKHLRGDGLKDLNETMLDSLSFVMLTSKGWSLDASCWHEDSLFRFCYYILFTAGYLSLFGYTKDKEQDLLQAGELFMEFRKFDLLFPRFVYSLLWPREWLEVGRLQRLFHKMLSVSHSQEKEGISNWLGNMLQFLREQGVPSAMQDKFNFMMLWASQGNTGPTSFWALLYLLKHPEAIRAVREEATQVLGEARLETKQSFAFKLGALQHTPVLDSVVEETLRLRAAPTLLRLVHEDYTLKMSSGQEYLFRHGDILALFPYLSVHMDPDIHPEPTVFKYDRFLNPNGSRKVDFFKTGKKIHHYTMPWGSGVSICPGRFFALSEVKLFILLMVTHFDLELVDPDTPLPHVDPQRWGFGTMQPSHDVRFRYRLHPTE

| Compound | IC50 [nM] |
| --- | --- |
| CC[C@@H]1CN(c2c(C#N)cnc3ccc(Cl)cc23)CC[C@@H]1C(=O)N1CCn2c(nnc2C(F)(F)F)C1 [Example 75b, 6-chloro-4-[(3S,4S)-3-ethyl-4-{[3-(trifluoromethyl)-5,6-dihydro[1,2,4]triazolo[4,3-a]pyrazin-7(8H)-yl]carbonyl}piperidin-1-yl]quinoline-3-carbonitrile] | 2.8 |
| C[C@@H]1CN(c2c(C#N)cnc3cc(C(F)F)ccc23)CC[C@@H]1C(=O)N1CCn2c(nnc2C(F)(F)F)C1 [Example 23, 7-(difluoromethyl)-4-((3S,4S)-3-methyl-4-(3-(trifluoromethyl)-5,6,7,8-tetrahydro-[1,2,4]trizolo[4,3-a]pyrazine-7-carbonyl)piperidin-1-yl)quinolone-3-carbonitrile] | 0.5 |
| C[C@@H]1CN(c2c(C#N)cnc3c(F)cc(F)cc23)CC[C@@H]1C(=O)N1CCn2c(nnc2C(F)(F)F)C1 [Example 26, 6,8-difluoro-4-[(3S,4S)-3-methyl-4-{[3-(trifluoromethyl)-5,6-dihydro[1,2,4]triazolo[4,3-a]pyrazin-7(8H)-yl]carbonyl}piperidin-1-yl]quinoline-3-carbonitrile] | 0.49 |
| N#Cc1cnc2cc(Br)ccc2c1N1CCC(C(=O)N2CCn3c(nnc3C(F)(F)F)C2)CC1 [Example 40, 7-bromo-4-(4-{[3-(trifluoromethyl)-5,6-dihydro[1,2,4]triazolo[4,3-a]pyrazin-7(8H)-yl]carbonyl}piperidin-1-yl)quinoline-3-carbonitrile] | 12 |
| C[C@@H]1CN(c2c(C#N)cnc3nc(C(F)(F)F)ccc23)CC[C@@H]1C(=O)N1CCn2c(nnc2C(F)(F)F)C1 [Example 21, 4-[(3S,4S)-3-methyl-4-{[3-(trifluoromethyl)-5,6-dihydro[1,2,4]triazolo[4,3-a]pyrazin-7(8H)-yl]carbonyl}piperidin-1-yl]-7-(trifluoromethyl)-1,8-naphthyridine-3-carbonitrile] | 4.81 |
| C[C@H]1CN(c2c(C#N)c(C(F)F)nc3ccc(Cl)cc23)CC[C@H]1C(=O)N1CCn2c(nnc2C(F)(F)F)C1 (single isomer, unassigned) [Example 57b] | 1490 |
| COc1ccc2c(N3CCC(C(=O)N4CCn5c(nnc5C(F)(F)F)C4)CC3)c(C#N)cnc2c1 [Example 44, 7-methoxy-4-(4-{[3-(trifluoromethyl)-5,6-dihydro[1,2,4]triazolo[4,3-a]pyrazin-7(8H)-yl]carbonyl}piperidin-1-yl)quinoline-3-carbonitrile] | 32 |
| COc1ccc2c(N3CC[C@@H](C(=O)N4CCn5c(nnc5C(F)(F)F)C4)[C@@H](C4CC4)C3)c(C#N)cnc2c1F [Example 77a, 4-[(3R,4R)-3-cyclopropyl-4-{[3-(trifluoromethyl)-5,6-dihydro[1,2,4]triazolo[4,3-a]pyrazin-7(8H)-yl]carbonyl}piperidin-1-yl]-8-fluoro-7-methoxyquinoline-3-carbonitrile] | 231 |
| N#Cc1cnc2ccc(Cl)cc2c1N1CC[C@@H](C(=O)N2CCn3c(nnc3C(F)(F)F)C2)[C@@H](C2CC2)C1 [Example 76a, 6-chloro-4-[(3R,4R)-3-cyclopropyl-4-{[3-(trifluoromethyl)-5,6-dihydro[1,2,4]triazolo[4,3-a]pyrazin-7(8H)-yl]carbonyl}piperidin-1-yl]quinoline-3-carbonitrile] | 1320 |
| C[C@@H]1CN(c2c(C#N)c[n+]([O-])c3cc(OCC4CC4)ccc23)CC[C@@H]1C(=O)N1CCn2c(nnc2C(F)(F)F)C1 [Example 71, 7-(cyclopropylmethoxy)-4-[(3S,4S)-3-methyl-4-{[3-(trifluoromethyl)-5,6-dihydro[1,2,4]triazolo[4,3-a]pyrazin-7(8H)-yl]carbonyl}piperidin-1-yl]quinoline-3-carbonitrile 1-oxide] | 0.54 |
| COc1ccc2c(N3CCC(C(=O)N4CCn5c(nnc5C(F)(F)F)C4)CC3)c(C#N)cnc2c1F [Example 42, 8-fluoro-7-methoxy-4-(4-{[3-(trifluoromethyl)-5,6-dihydro[1,2,4]triazolo[4,3-a]pyrazin-7(8H)-yl]carbonyl}piperidin-1-yl)quinoline-3-carbonitrile] | 49 |
| COc1ccc2c(N3CCC(C(=O)N4CCn5c(C)nnc5C4)C(C)C3)c(C#N)cnc2c1 (stereo not drawn) [Example 84, 7-methoxy-4-{3-methyl-4-[(3-methyl-5,6-dihydro[1,2,4]triazolo[4,3-a]pyrazin-7(8H)-yl)carbonyl]piperidin-1-yl}quinoline-3-carbonitrile] | 3.3 |
| C[C@@H]1CN(c2c(C#N)cnc3c(F)c(F)c(F)cc23)CC[C@@H]1C(=O)N1CCn2c(nnc2C(F)(F)F)C1 [Example 7, 6,7,8-trifluoro-4-[(3S,4S)-3-methyl-4-{[3-(trifluoromethyl)-5,6-dihydro[1,2,4]triazolo[4,3-a]pyrazin-7(8H)-yl]carbonyl}piperidin-1-yl]quinoline-3-carbonitrile] | 1.1 |
| Cc1nc2ccc(F)cc2c(N2CC[C@H](C(=O)N3CCn4c(nnc4C(F)(F)F)C3)[C@H](C)C2)c1C#N [Example 29, 6-fluoro-2-methyl-4-[(3S,4S)-3-methyl-4-{[3-(trifluoromethyl)-5,6-dihydro[1,2,4]triazolo[4,3-a]pyrazin-7(8H)-yl]carbonyl}piperidin-1-yl]quinoline-3-carbonitrile] | 9.4 |
| C[C@@H]1CN(c2c(C#N)cnc3cc(C(F)(F)F)ccc23)CC[C@@H]1C(=O)N1CCn2c(nnc2C(F)(F)F)C1 [Example 16, 4-[(3S,4S)-3-methyl-4-{[3-(trifluoromethyl)-5,6-dihydro[1,2,4]triazolo[4,3-a]pyrazin-7(8H)-yl]carbonyl}piperidin-1-yl]-7-(trifluoromethyl)quinoline-3-carbonitrile] | 0.38 |
| CC(C)Oc1ccc2c(N3CC[C@H](C(=O)N4CCn5c(nnc5C(F)(F)F)C4)[C@H](C)C3)c(C#N)cnc2c1F [Example 37, 8-fluoro-4-[(3S,4S)-3-methyl-4-{[3-(trifluoromethyl)-5,6-dihydro[1,2,4]triazolo[4,3-a]pyrazin-7(8H)-yl]carbonyl}piperidin-1-yl]-7-(propan-2-yloxy)quinoline-3-carbonitrile] | 0.54 |

Next, values leading:

| IC50 [nM] | Compound |
| --- | --- |
| 1.9 | C[C@@H]1CN(c2c(C#N)c[n+]([O-])c3ccc(Cl)cc23)CC[C@@H]1C(=O)N1CCn2c(nnc2C(F)(F)F)C1 [Example 123, 6-chloro-3-cyano-4-((3S,4S)-3-methyl-4-(3-(trifluoromethyl)-5,6,7,8-tetrahydro-[1,2,4]triazolo[4,3-a]pyrazine-7-carbonyl)piperidin-1-yl)quinoline 1-oxide] |
| 386 | N#Cc1cnc2ccc(Cl)cc2c1N1CCN(C(=O)N2CCn3c(nnc3C(F)(F)F)C2)CC1 [Example 129, 6-chloro-4-(4-{[3-(trifluoromethyl)-5,6-dihydro[1,2,4]triazolo[4,3-a]pyrazin-7(8H)-yl]carbonyl}piperazin-1-yl)quinoline-3-carbonitrile] |
| 0.33 | C[C@@H]1CN(c2c(C#N)cnc3cc(OCC(F)F)ccc23)CC[C@@H]1C(=O)N1CCn2c(nnc2C(F)(F)F)C1 [Example 102, 7-(2,2-difluoroethoxy)-4-[(3S,4S)-3-methyl-4-{[3-(trifluoromethyl)-5,6-dihydro[1,2,4]triazolo[4,3-a]pyrazin-7(8H)-yl]carbonyl}piperidin-1-yl]quinoline-3-carbonitrile] |
| 16.1 | Cn1nc(C(F)(F)F)c2c1CN(C(=O)C1CCN(c3c(C#N)cnc4ccc(Cl)cc34)CC1)CC2 [Example 113, 6-chloro-4-(4-{[1-methyl-3-(trifluoromethyl)-1,4,5,7-tetrahydro-6H-pyrazolo[3,4-c]pyridin-6-yl]carbonyl}piperidin-1-yl)quinoline-3-carbonitrile] |
| 98 | N#Cc1cnc2ccc(Cl)cc2c1N1CCN(C(=O)N2CCn3c(nnc3C(F)(F)F)C2)C2(CC2)C1 [Example 127, 6-chloro-4-(4-{[3-(trifluoromethyl)-5,6-dihydro[1,2,4]triazolo[4,3-a]pyrazin-7(8H)-yl]carbonyl}-4,7-diazaspiro[2.5]oct-7-yl)quinoline-3-carbonitrile] |
| 375 | CC1(C)CN(C(=O)C2CCN(c3c(C#N)cnc4ccc(Cl)cc34)CC2)Cc2nnc(C(F)(F)F)n21 [Example 109, 6-chloro-4-(4-{[5,5-dimethyl-3-(trifluoromethyl)-5,6-dihydro[1,2,4]triazolo[4,3-a]pyrazin-7(8H)-yl]carbonyl}piperidin-1-yl)quinoline-3-carbonitrile] |
| 0.33 | CC(C)COc1ccc2c(N3CC[C@H](C(=O)N4CCn5c(nnc5C(F)(F)F)C4)[C@H](C)C3)c(C#N)cnc2c1 [Example 101, 7-(2-methylpropoxy)-4-[(3S,4S)-3-methyl-4-{[3-(trifluoromethyl)-5,6-dihydro[1,2,4]triazolo[4,3-a]pyrazin-7(8H)-yl]carbonyl}piperidin-1-yl]quinoline-3-carbonitrile] |
| 1.4 | CC1CN(c2c(C#N)cnc3ccc(Cl)cc23)CCC1C(=O)N1CCn2c(nnc2C(F)(F)F)C1 (stereo not drawn) [Example 116, 6-chloro-4-(3-methyl-4-(3-(trifluoromethyl)-5,6,7,8-tetrahydro-[1,2,4]triazolo[4,3-a]pyrazine-7-carbonyl)piperidin-1-yl)quinoline-3-carbonitrile] |
